Measurements reported in ChEMBL document CHEMBL4425139, “Discovery, characterization, and lead optimization of 7-azaindole non-nucleoside HIV-1 reverse transcriptase inhibitors” (Bioorg Med Chem Lett, 2016).
pEC50, pIC50: −log10 of the molar value.

Assays:
[1] = tested on: Vero; assay: (§1) Cytotoxicity against HIV1 infected African green monkey Vero cells assessed as reduction in cell viability after 7 days by MTT assay; type: cell-based; details: chlorocebus sabaeus, vero, 168 h
[2] = tested on: CCRF-CEM; assay: (§2) Cytotoxicity against HIV1 infected human CEM cells assessed as reduction in cell viability after 7 days by MTT assay; type: cell-based; details: ccrf-cem, 168 h
[3] = tested on: PBMC; assay: (§3) Cytotoxicity against HIV1 infected human PBMC cells assessed as reduction in cell viability after 7 days by MTT assay; type: cell-based; details: pbmc, 168 h
[4] = Ratio of CC50 for human PBM cells to EC50 for HIV-1 LAI infected in human PBM cells
[5] = target: T1, Human immunodeficiency virus type 1 reverse transcriptase (Human immunodeficiency virus 1, UniProt Q72547); assay: Inhibition of HIV1 RT using 17-mer DNA/Alexa Fluor 488 5'-end labeled DNA/Alexa Fluor 555-aha-dUTP as primer/template/substrate preincubated for 10 mins followed substarte addition measured after 30 mins by FRET assay
[6] = tested on: Human immunodeficiency virus 1; assay: Antiviral activity against HIV-1 LAI infected in human PBM cells after 7 days; type: functional, organism-based; details: Human immunodeficiency virus 1, LAI, 168 h
[7] = target: Human immunodeficiency virus type 1 reverse transcriptase (Human immunodeficiency virus 1, UniProt Q72547, V108I)
[8] = target: Human immunodeficiency virus type 1 reverse transcriptase (Human immunodeficiency virus 1, UniProt Q72547, K103N)
[9] = target: Human immunodeficiency virus type 1 reverse transcriptase (Human immunodeficiency virus 1, UniProt Q72547, E138K)
[10] = tested on: Human immunodeficiency virus 1; assay: Ratio of IC50 for HIV1 RT K103N mutant to IC50 for wild type HIV1 RT
[11] = as §1; type: cell-based; details: chlorocebus sabaeus, HIV1 infected Vero cells
[12] = as §2; type: cell-based, CCRF-CEM; details: HIV1 infected CEM (CCRF-CEM) cells
[13] = as §3; type: cell-based; details: HIV1 infected PBMC cells
[14] = target: T1, Human immunodeficiency virus type 1 reverse transcriptase; assay: Inhibition of HIV1 RT using A5'-end 32P-labeled 24-mer primer/a48-mer template preincubated for 5 mins followed by 1 uM nucleotides addition measured after 10 mins by gel-based primer extension assay
[15] = tested on: Human immunodeficiency virus 1
[16] = target: T1, Human immunodeficiency virus type 1 reverse transcriptase; assay: Inhibition of HIV1 RT using A5'-end 32P-labeled 24-mer primer/a48-mer template preincubated for 5 mins followed by 0.5 uM nucleotides addition measured after 15 mins by gel-based primer extension assay
[17] = target: T1, Human immunodeficiency virus type 1 reverse transcriptase; assay: Inhibition of HIV1 RT using A5'-end 32P-labeled 24-mer primer/a48-mer template preincubated for 5 mins followed by 25 uM nucleotides addition measured after 2 mins by gel-based primer extension assay
[18] = tested on: Human immunodeficiency virus 1; assay: Ratio of IC50 for HIV1 RT E138K mutant to IC50 for wild type HIV1 RT
[19] = target: T1, Human immunodeficiency virus type 1 reverse transcriptase; assay: Inhibition of HIV1 RT using A5'-end 32P-labeled 24-mer primer/a48-mer template preincubated for 5 mins followed by 10 uM nucleotides addition measured after 5 mins by gel-based primer extension assay

| Structure (SMILES) | CC50 [1] | CC50 [2] | CC50 [3] | Ratio CC50/EC50 [4] | pIC50 [5] | pEC50 [6] | also measured |
| --- | --- | --- | --- | --- | --- | --- | --- |
| C=CCn1cc(C#N)c2cc(C#N)cnc21 | > 100 µM | > 100 µM | > 100 µM | >100 | < 4.00 | 6.12 |  |
| N#Cc1cn(Cc2ccccc2)c2ncc(Br)cc12 | > 100 µM | > 100 µM | > 100 µM | >100 | < 4.00 | 6.33 |  |
| CC1(C)CC(=O)c2c(nc3c(c(C#N)cn3Cc3ccccc3)c2-c2ccc([N+](=O)[O-])cc2)C1 |  |  |  |  | 5.85 |  |  |
| O=C1Nc2ccc(Cl)cc2[C@@](C#CC2CC2)(C(F)(F)F)O1 [EFAVIRENZ] | > 100 µM | > 100 µM | > 100 µM |  |  |  |  |
| CC1(C)CC(=O)c2c(nc3c(c(C#N)cn3Cc3ccccc3)c2-c2cccc(Cl)c2)C1 |  |  |  |  | 4.24 | 6.00 |  |
| Cc1ccc(-c2cnc3c(c2)c(C#N)cn3Cc2ccccc2)cc1 | 8.1 µM | > 100 µM | > 100 µM | >100 | < 4.00 | 6.31 |  |
| CCCCn1cc(C#N)c2c(-c3ccc(C(F)(F)F)cc3F)c3c(nc21)-c1ccccc1C3=O | 6.8 µM | 48 µM | > 100 µM | >100 | 6.24 | 6.08 | pIC50 [7]: < 4.00; pIC50 [8]: 4.55; pIC50 [9]: < 4.00; Ratio IC50 [10]: 49 |
| Cc1ccnc2c1NC(=O)c1cccnc1N2C1CC1 [NEVIRAPINE] |  |  |  |  |  | 7.40 | CC50 at 168 h [11]: > 100 µM; CC50 at 168 h [12]: > 100 µM; CC50 at 168 h [13]: > 100 µM |
| CC1(C)CC(=O)c2c(nc3c(c(C#N)cn3Cc3ccccc3)c2-c2ccccc2)C1 | > 100 µM | > 100 µM | > 100 µM | >100 | 6.14 | 6.46 | pIC50 [7]: < 4.00; pIC50 [8]: 5.04; pIC50 [14]: 5.05; Ratio IC50 [15]: 11; pIC50 [9]: 4.16; pIC50 [16]: 5.00; pIC50 [17]: 6.14; Ratio IC50 [10]: 28; Ratio IC50 [18]: 211; pIC50 [19]: 6.02 |
| CC1(C)CC(=O)c2cc3c(C#N)cn(Cc4ccccc4)c3nc2C1 | > 100 µM | 3.7 µM | > 100 µM | >100 | 4.92 | 6.04 |  |
| CC(=O)c1c(C)nc2c(c(C#N)cn2Cc2ccccc2)c1-c1ccc([N+](=O)[O-])cc1 | > 100 µM | > 100 µM | > 100 µM | >100 | 5.20 | 6.72 | pIC50 [7]: < 4.00; pIC50 [8]: 4.82; Ratio IC50 [15]: 12; pIC50 [9]: 4.23; Ratio IC50 [10]: 2.4; Ratio IC50 [18]: 9.4 |
| CC1(C)CC(=O)c2c(nc3c(c(C#N)cn3Cc3ccccc3)c2-c2ccc(F)cc2)C1 |  |  |  |  | 5.54 |  |  |
| CC(C)(C)n1cc(C#N)c2cc(C=O)cnc21 | 8.1 µM | > 100 µM | > 100 µM | >100 | 4.85 | 6.31 |  |
| CC(=O)c1cc2c(-c3ccc(N(C)C)cc3)c3c(nc2[nH]1)-c1ccccc1C3=O | 11 µM | 24 µM | > 100 µM | >100 | 4.82 | 6.03 |  |
| CC1(C)CC(=O)c2c(nc3c(c(C#N)cn3Cc3ccccc3)c2-c2c(F)cccc2F)C1 |  |  |  |  | 6.44 | 6.34 |  |
| CCCc1c2c(nc3c1c(C#N)cn3C1CCCCC1)CCC2=O | > 100 µM | > 100 µM | > 100 µM | >100 | < 4.00 | 6.16 |  |
| Cc1cccc(C)c1-c1c2c(nc3c1c(C#N)cn3Cc1ccccc1)CC(C)(C)CC2=O |  |  |  |  | 4.59 | < 4.00 |  |
